Test results reported in patent US10683311B2 (priority 2015, dated 2020).

Experiment: log P by HPLC on reversed-phase column (C18), EEC Directive 79/831 Annex V.A8
Assay type: physicochemical
Conditions: Method A: 40° C., 0.1% aqueous formic acid and acetonitrile
Protocol: In table 1, the log P values were determined in accordance with EEC Directive 79/831 Annex V.A8 by HPLC (High Performance Liquid Chromatography) on a reversed-phase column (C18), using the methods described below:
Method A: temperature: 40° C.; mobile phases: 0.1% aqueous formic acid and acetonitrile; linear gradient from 10% acetonitrile to 95% acetonitrile;
Method B: temperature: 40° C.; mobile phases: 0.001 molar ammonium acetate solution in water and acetonitrile; linear gradient from 10% acetonitrile to 95% acetonitrile.
Calibration was carried out using unbranched alkan-2-ones (comprising 3 to 16 carbon atoms) with known log P values (determination of the log P values by the retention times using linear interpolation between two successive alkanones). lambda-max-values were determined using UV-spectra from 200 nm to 400 nm and the peak values of the chromatographic signals.

**Q.** For Cc1nc2ccccc2cc1Nc1ccccc1[Si](C)(C)C [I.054], which logP is on record?
**A.** 2.46

**Q.** For C=C[Si](C)(C)c1c(F)cccc1Oc1nc2ccc(F)c(F)c2nc1C [I.091], which logP is on record?
**A.** 5.62

**Q.** With Cc1nc2c(F)c(F)ccc2cc1Oc1cc(F)ccc1[Si](C)(C)O [I.035] as the compound, how does the logP read?
**A.** 3.55

**Q.** Which logP does the source give for COc1cccc(Oc2cc3ccc(F)c(F)c3nc2C)c1[Si](C)(C)C [I.038] here?
**A.** 5.85

**Q.** With Cc1nc2ccccc2cc1Oc1cccc(OC(F)(F)F)c1Br [IIa.25] as the compound, how does the logP read?
**A.** 4.30

**Q.** Which logP does the source give for CC[Si](C)(C)c1ccccc1Oc1cnc2c(c1)CCCC2 [I.041] here?
**A.** 3.68

**Q.** For C[Si](C)(c1ccc(Cc2ccccc2)cc1)c1ccccc1Cc1cnc2ccccc2c1 [I.143], which logP is on record?
**A.** 5.78

**Q.** For Cc1nc2c(F)c(F)ccc2cc1Oc1cc(N)ccc1[Si](C)(C)C [I.029], which logP is on record?
**A.** 4.59

**Q.** For CCOc1nc2ccccc2cc1Oc1cccc(F)c1[Si](C)(C)C [I.060], which logP is on record?
**A.** 6.79

**Q.** With C[Si](C)(C)c1c(F)cccc1Oc1cnc2ccnn2c1 [I.122] as the compound, how does the logP read?
**A.** 4.23

**Q.** Which logP does the source give for C[Si](C)(O)c1c(F)cccc1Oc1cnc2sccc2c1 [I.119] here?
**A.** 3.09

**Q.** Which logP does the source give for C[Si](C)(C)c1c(F)cccc1Oc1cc2ccccc2nc1C(F)F [I.065] here?
**A.** 5.45

**Q.** For C[Si](C)(Cc1ccccc1)c1ccccc1Cc1cnc2ccccc2c1 [I.142], which logP is on record?
**A.** 4.94

**Q.** For Cc1nc2c(F)c(F)ccc2nc1Oc1ccccc1[Si](C)(C)C [I.086], which logP is on record?
**A.** 5.46

**Q.** Which logP does the source give for C[Si](C)(C)c1ccccc1Nc1cnc2c(F)c(F)ccc2n1 [I.084] here?
**A.** 4.49

**Q.** Which logP does the source give for C[Si](C)(C)c1c(F)cccc1Oc1cnc2c(F)c(F)ccc2n1 [I.078] here?
**A.** 5.20

**Q.** For Cc1ccc(Oc2nc3ccc(F)c(F)c3nc2C)c([Si](C)(C)O)c1 [I.099], which logP is on record?
**A.** 3.85

**Q.** Which logP does the source give for C[Si](C)(O)c1c(F)cccc1Oc1cnc2c(F)c(F)ccc2n1 [I.082] here?
**A.** 3.33

**Q.** With C[Si](C)(O)c1ccccc1Oc1cnc2ccccc2n1 [I.070] as the compound, how does the logP read?
**A.** 2.86

**Q.** With C[Si](C)(O)c1c(F)cccc1Oc1cnc2ccnn2c1 [I.121] as the compound, how does the logP read?
**A.** 2.07

**Q.** For Cc1nc2ccccc2cc1Oc1cccc(OC(F)(F)F)c1[Si](C)(C)O [I.050], which logP is on record?
**A.** 3.35

**Q.** With C[Si](C)(C)c1c(F)cccc1Nc1cc2ccccc2nc1C(F)F [I.066] as the compound, how does the logP read?
**A.** 5.68

**Q.** For COc1cccc(Oc2nc3ccc(F)c(F)c3nc2C)c1[Si](C)(C)O [I.094], which logP is on record?
**A.** 3.60

**Q.** For Cc1nc2ccccc2nc1Oc1ccccc1[Si](C)(C)C [I.110], which logP is on record?
**A.** 5.31

**Q.** With C[Si](C)(C)c1c(F)cccc1Sc1cnc2ccccc2c1 [I.131] as the compound, how does the logP read?
**A.** 5.72

**Q.** With Cc1nc2c(F)c(F)ccc2cc1Oc1cc([N+](=O)[O-])ccc1[Si](C)(C)C [I.031] as the compound, how does the logP read?
**A.** 5.34

**Q.** Which logP does the source give for Cc1c(Cc2ccccc2[Si](C)(C)C)cnc2ccccc12 [I.130] here?
**A.** 3.19

**Q.** Which logP does the source give for C[Si](C)(c1ccccc1)c1ccccc1Cc1cnc2ccccc2c1 [I.013] here?
**A.** 4.20

**Q.** Which logP does the source give for C[Si](C)(O)c1c(F)cccc1Oc1cnc2ccccc2n1 [I.071] here?
**A.** 3.01

**Q.** For Cc1nc2c(F)c(F)ccc2nc1Oc1cccc(F)c1[Si](C)(C)C [I.088], which logP is on record?
**A.** 5.65

**Q.** Which logP does the source give for Cc1ccc([Si](C)(C)O)c(Oc2nc3ccc(F)c(F)c3nc2C)c1 [I.097] here?
**A.** 3.76

**Q.** With Cc1nc2c(F)c(F)ccc2cc1Oc1cccc(OC(F)(F)F)c1[Si](C)(C)O [I.036] as the compound, how does the logP read?
**A.** 4.20

**Q.** Which logP does the source give for Cc1nc2ccccc2nc1Oc1cccc(F)c1[Si](C)(C)c1ccccc1 [I.115] here?
**A.** 5.59

**Q.** For Cc1nc2c(F)c(F)ccc2nc1Oc1c(Cl)cccc1[Si](C)(C)O [I.103], which logP is on record?
**A.** 3.96

**Q.** Which logP does the source give for COc1ccc([Si](C)(C)c2c(F)cccc2Oc2nc3ccccc3nc2C)cc1 [I.114] here?
**A.** 5.35

**Q.** With C[Si](C)(O)c1c(F)cccc1Oc1cnc2c(F)cnn2c1 [I.127] as the compound, how does the logP read?
**A.** 2.60

**Q.** Which logP does the source give for C[Si](C)(C)c1c(F)cccc1Oc1cnc2ccsc2c1 [I.118] here?
**A.** 5.22

**Q.** For C[Si](C)(CCl)c1c(F)cccc1Oc1cnc2ccccc2c1 [I.007], which logP is on record?
**A.** 5.00

**Q.** For C[Si](C)(C)c1c(F)cccc1Oc1cnc2ccccc2n1 [I.069], which logP is on record?
**A.** 5.22

**Q.** Which logP does the source give for C[Si](C)(C)c1c(F)cccc1Oc1cc2ccccc2nc1C1CC1 [I.061] here?
**A.** 6.90

**Q.** Which logP does the source give for Cc1cccc([Si](C)(C)C)c1Oc1nc2ccc(F)c(F)c2nc1C [I.107] here?
**A.** 5.88

**Q.** For C[Si](C)(O)c1c(F)cccc1Oc1cnc2ccccc2c1 [I.003], which logP is on record?
**A.** 2.90

Same assay, conditions: logP Method A

**Q.** Which logP does the source give for Nc1ccccc1Oc1cnc2c(F)c(F)ccc2c1 [IVa.03] here?
**A.** 2.71

**Q.** Which logP does the source give for N#Cc1ccc(F)c(Br)c1Oc1cnc2c(F)c(F)ccc2n1 [IIb.21] here?
**A.** 3.72

**Q.** With Cc1nc2c(F)c(F)ccc2nc1Oc1cc(C#N)ccc1Br [IIb.20] as the compound, how does the logP read?
**A.** 4.03

**Q.** With Cc1cccc(Oc2nc3ccc(F)c(F)c3nc2C)c1Br [IIb.12] as the compound, how does the logP read?
**A.** 4.85

**Q.** For Cc1nc2c(F)c(F)ccc2nc1Oc1ccc(Cl)cc1Br [IIb.11], which logP is on record?
**A.** 5.16

**Q.** Which logP does the source give for Cc1cccc(Br)c1Oc1nc2ccc(F)c(F)c2nc1C [IIb.03] here?
**A.** 4.80

**Q.** For Cc1nc2c(F)c(F)ccc2cc1Oc1cccc(F)c1N [IVa.06], which logP is on record?
**A.** 3.27

**Q.** For CCOc1nc2ccccc2cc1Oc1cccc(F)c1 [VIIa.02], which logP is on record?
**A.** 4.74

**Q.** Which logP does the source give for Cc1nc2c(F)c(F)ccc2nc1Oc1c(Cl)cccc1Br [IIb.05] here?
**A.** 4.87

**Q.** For N#Cc1cc(Br)c(Oc2cnc3c(F)c(F)ccc3n2)cc1F [IIb.19], which logP is on record?
**A.** 3.81

Same assay, conditions: reversed-phase HPLC column (C18), Method A: 40° C., 0.1% aqueous formic acid and acetonitrile

**Q.** Which chromatographic logP does the source give for [O-][n+]1cc(Oc2cccc(F)c2)cc2ccccc21 [VIIa.06, 3-(3-fluorophenoxy)quinoline 1-oxide] here?
**A.** 2.14

**Q.** With Ic1ccccc1Oc1cnc2ccccc2c1 [IIa.02, 3-(2-iodophenoxy)quinoline] as the compound, how does the chromatographic logP read?
**A.** 3.71

**Q.** For CC(=O)COc1ccccc1[Si](C)(C)C [XIV.01, 1-[2-(trimethylsilyl)phenoxy]acetone], which chromatographic logP is on record?
**A.** 1.39

**Q.** Which chromatographic logP does the source give for C[SiH](c1ccccc1)c1c(Oc2cccc(F)c2)c(Cl)nc2ccccc12 (stereo not drawn) [2-chloro-3-(3-fluorophenoxy)-4-[methyl(phenyl)silyl]quinoline] here?
**A.** 5.9

**Q.** With Cc1nc2ccccc2cc1Oc1ccc(F)cc1Br [IIa.13, 3-(2-bromo-4-fluorophenoxy)-2-methylquinoline] as the compound, how does the chromatographic logP read?
**A.** 3.35

**Q.** With Fc1cccc(Oc2cnc3ccccc3c2)c1 [VIIa.05, 3-(3-fluorophenoxy)quinoline] as the compound, how does the chromatographic logP read?
**A.** 3.21

**Q.** With Cc1nc2ccccc2cc1Oc1ccccc1Br [IIa.08, 3-(2-bromophenoxy)-2-methylquinoline] as the compound, how does the chromatographic logP read?
**A.** 3.96

**Q.** Which chromatographic logP does the source give for Cc1nc2ccccc2cc1Oc1cccc(F)c1Br [IIa.18, 3-(2-bromo-3-fluorophenoxy)-2-methylquinoline] here?
**A.** 3.58

**Q.** For Cc1nc2c(F)c(F)ccc2cc1Oc1cccc(OC(F)(F)F)c1Br [IIa.24, 3-[2-bromo-3-(trifluoromethoxy)phenoxy]-7,8-difluoro-2-methylquinoline], which chromatographic logP is on record?
**A.** 4.9

**Q.** Which chromatographic logP does the source give for Cc1nc2ccccc2cc1Oc1ccc(Cl)cc1Br [IIa.26, 3-(2-bromo-4-chlorophenoxy)-2-methylquinoline] here?
**A.** 4.13

**Q.** Which chromatographic logP does the source give for Fc1ccc(Oc2cnc3c(Cl)cccc3c2)c(Br)c1 [IIa.11, 3-(2-bromo-4-fluorophenoxy)-8-chloroquinoline] here?
**A.** 4.18

Same assay, conditions: reversed-phase HPLC column (C18), logP Method A

**Q.** With [O-][n+]1cc(Oc2cccc(F)c2)cc2ccccc21 [VIIa.06, 3-(3-fluorophenoxy)quinoline 1-oxide] as the compound, how does the chromatographic logP read?
**A.** 2.14

**Q.** Which chromatographic logP does the source give for CC(=O)COc1ccccc1[Si](C)(C)C [XIV.01, 1-[2-(trimethylsilyl)phenoxy]acetone] here?
**A.** 1.39

**Q.** Which chromatographic logP does the source give for OCc1cccc(Oc2cnc3ccccc3c2)c1I [II.02A] here?
**A.** 2.59

**Q.** Which chromatographic logP does the source give for [O-][S+](c1cccc(F)c1)c1cnc2ccccc2c1 (stereo not drawn) [VII.04A] here?
**A.** 2.1

**Q.** Which chromatographic logP does the source give for Fc1cccc(Oc2cnc3ccccc3c2)c1 [VIIa.05, 3-(3-fluorophenoxy)quinoline] here?
**A.** 3.21

**Q.** With O=S(=O)(c1cccc(F)c1)c1cnc2ccccc2c1 [VII.05A] as the compound, how does the chromatographic logP read?
**A.** 2.68
